Drawing on patent US9139593B2, “Azetidine compounds, compositions and methods of use” (Hoffman-La Roche Inc., priority 2011, dated 2015), this text covers IC50 for 20 compounds.

This assay deals with Human Soluble Epoxide Hydrolase (Homo sapiens (Human), UniProt P34913). Briefly: Human Soluble Epoxide Hydrolase Enzyme Assay. Type of assay: biochemical. The note with it: resorufin epoxide substrate, fluorescence, room temperature, triplicates. How it is done: Human Soluble Epoxide Hydrolase Enzyme Assay
Human Soluble Epoxide Hydrolase, sequence (P34913 whole entry): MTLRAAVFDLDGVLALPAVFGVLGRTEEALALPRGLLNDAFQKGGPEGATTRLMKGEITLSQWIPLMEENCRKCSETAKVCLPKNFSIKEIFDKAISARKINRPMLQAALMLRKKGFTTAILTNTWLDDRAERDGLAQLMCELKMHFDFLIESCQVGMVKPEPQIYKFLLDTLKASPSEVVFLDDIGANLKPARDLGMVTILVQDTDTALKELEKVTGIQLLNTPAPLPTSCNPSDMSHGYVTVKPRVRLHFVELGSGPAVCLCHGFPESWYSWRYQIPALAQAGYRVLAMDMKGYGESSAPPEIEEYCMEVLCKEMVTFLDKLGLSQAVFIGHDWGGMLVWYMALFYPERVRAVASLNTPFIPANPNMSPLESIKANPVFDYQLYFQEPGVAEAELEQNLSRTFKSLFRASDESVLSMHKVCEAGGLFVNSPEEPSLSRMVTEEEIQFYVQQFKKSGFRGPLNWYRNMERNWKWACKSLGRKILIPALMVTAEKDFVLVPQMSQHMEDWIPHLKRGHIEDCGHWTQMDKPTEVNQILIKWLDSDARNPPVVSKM
Test compounds (1.6 mM stock in DMSO) were diluted 3 fold in series in DMSO and 0.8 microliters per well were added into 384-well NBS microplates (Corning). Resorufin epoxide substrate (20 uM stock in DMSO) was diluted to 5 μM with Assay Buffer (25 mM bis-Tris-HCl, pH 7.0, 1 mM DTT and 0.2 mg/ml BSA) and 8 microliters per well were added to the microplates. Thirty two microliters per well of 3.6 nM soluble epoxide hydrolase in Assay Buffer was then added. The samples were incubated at room temperature and assay signals were monitored by reading excitation at 530 nm and emission fluorescence at 590 nm on a PlateVision (Zeiss) reader every 2 minutes for 8 times. The reaction rate, % inhibition and IC50 values were calculated using AssayAnalyzer and Condoseo software (Genedata AG, Basel, Switzerland).
All the experiments were done in triplicates.
The compounds of the present invention were tested for their capacity to inhibit sEH activity.
In turn, `O=C(NCc1ccc(Cl)cc1Cl)N1CC2CN(C(=O)c3ccccc3)C2C1` (racemic) [Example 18, rac-6-Benzoyl-3,6-diaza-bicyclo[3.2.0]heptane-3-carboxylic acid 2,4-dichloro-benzylamide] displayed an IC50 of 183 nM. In other words, the sub-micromolar range.
On to `O=C(NCc1ccc(Cl)cc1Cl)N1CC2CN(S(=O)(=O)c3ccccc3)C2C1` (racemic) [Example 19, rac-6-Benzenesulfonyl-3,6-diaza-bicyclo[3.2.0]heptane-3-carboxylic acid 2,4-dichloro-benzylamide], for which the IC50 came to 238 nM.
The result for `O=C(NCc1ccc(Cl)cc1Cl)N1CC2CN(c3ncccn3)C2C1` (racemic) [Example 20, rac-6-Pyrimidin-2-yl-3,6-diaza-bicyclo[3.2.0]heptane-3-carboxylic acid 2,4-dichloro-benzylamide] reads 361 nM.
Then `O=C(O)c1ccc(N2CC3CN(C(=O)NCc4ccc(Cl)cc4Cl)CC32)cc1` (racemic) [Example 21, rac-4-[3-(2,4-Dichloro-benzylcarbamoyl)-3,6-diaza-bicyclo[3.2.0]hept-6-yl]-benzoic acid], with 351 nM; and `O=C(NCc1ccc(Cl)cc1Cl)N1CC2(C1)CN(C(=O)c1ccccc1)C2` [Example 1, 6-Benzoyl-2,6-diaza-spiro[3.3]heptane-2-carboxylic acid 2,4-dichloro-benzylamide], with 241 nM; and `O=C(O)c1ccc(N2CC3(CN(C(=O)NCc4ccc(Cl)cc4Cl)C3)C2)cc1` [Example 2, 4-[6-(2,4-Dichloro-benzylcarbamoyl)-2,6-diaza-spiro[3.3]hept-2-yl]-benzoic acid], with 1260 nM.
The compound `O=C(NCc1ccc(Cl)cc1Cl)N1CC2(C1)CN(c1ncccn1)C2` [Example 4, 6-Pyrimidin-2-yl-2,6-diaza-spiro[3.3]heptane-2-carboxylic acid 2,4-dichloro-benzylamide] yielded an IC50 of 2320 nM.
The result for `O=C(NCc1ccc(Cl)cc1Cl)N1CC2(CCN2S(=O)(=O)c2ccc(F)cc2)C1` [Example 5, N-(2,4-Dichlorobenzyl)-1-(4-fluorophenylsulfonyl)-1,6-diazaspiro[3.3]heptane-6-carboxamide] reads 284 nM; that for `O=C(NCc1ccc(Cl)cc1Cl)N1CCC12CN(S(=O)(=O)c1ccc(Cl)cc1)C2` [Example 6, 6-(4-Chlorophenylsulfonyl)-N-(2,4-dichlorobenzyl)-1,6-diazaspiro[3.3]heptane-1-carboxamide], 321 nM; that for `O=C(NCc1ccc(Cl)cc1Cl)N1CC2(CCN2c2ncccn2)C1` [Example 7, N-(2,4-Dichlorobenzyl)-1-(pyrimidin-2-yl)-1,6-diazaspiro[3.3]heptane-6-carboxamide], 125 nM.
`O=C(NCCCc1ccccc1)N1CC2(CCN2Cc2ccccc2)C1` [Example 8, Benzyl-1,6-diaza-spiro[3.3]heptane-6-carboxylic acid (3-phenyl-propyl)-amide]: inhibition was half-maximal at 1980 nM (IC50).
In the case of `O=C(NCCCc1ccccc1)N1CC2(CCN2S(=O)(=O)c2ccc(Cl)cc2)C1` [Example 9, 1-(4-Chloro-benzenesulfonyl)-1,6-diaza-spiro[3.3]heptane-6-carboxylic acid (3-phenyl-propyl)-amide], the IC50 came to 1990 nM.
Then `O=C(NC12CC3CC(CC(C3)C1)C2)N1CC2(CCN2S(=O)(=O)c2ccc(Cl)cc2)C1` [Example 10, 1-(4-Chloro-benzenesulfonyl)-1,6-diaza-spiro[3.3]heptane-6-carboxylic acid adamantan-1-ylamide], with 2550 nM; and `O=C(NCc1ccc(Cl)cc1Cl)N1CC2(CCN2S(=O)(=O)c2ccc(Cl)cc2)C1` [Example 11, 1-(4-Chloro-benzenesulfonyl)-1,6-diaza-spiro[3.3]heptane-6-carboxylic acid 2,4-dichloro-benzylamide], with 640 nM.
Compound `O=C(NCc1ccccc1OC(F)(F)F)N1CC2(CCN2S(=O)(=O)c2ccc(Cl)cc2)C1` [Example 12, 1-(4-Chloro-benzenesulfonyl)-1,6-diaza-spiro[3.3]heptane-6-carboxylic acid 2-trifluoromethoxy-benzylamide] yielded a concentration for half-maximal inhibition (IC50) of 243 nM.
For `O=C(NCCCc1ccccc1)N1CC2(CCN2S(=O)(=O)c2ccccc2C(F)(F)F)C1` [Example 13, 1-(2-trifluoromethyl-benzenesulfonyl)-1,6-diaza-spiro[3.3]heptane-6-carboxylic acid (3-phenyl-propyl)-amide], it took 476 nM to reach half-maximal inhibition (IC50).
Then `O=C(NCCCc1ccccc1)[C@@H]1CCC12CN(S(=O)(=O)c1ccccc1Cl)C2` [Example 14, (R)-2-(2-Chlorophenylsulfonyl)-N-(3-phenylpropyl)-2-azaspiro[3.3]heptane-5-carboxamide], with 2790 nM.
In turn, `O=C(NCCCc1ccccc1)[C@H]1CCC12CN(S(=O)(=O)c1ccccc1Cl)C2` [Example 15, (S)-2-(2-Chlorophenylsulfonyl)-N-(3-phenylpropyl)-2-azaspiro[3.3]heptane-5-carboxamide] had an IC50 of 288 nM.
The result for `O=C(NCc1ccc(Cl)cc1Cl)N[C@@H]1CCC12CN(S(=O)(=O)c1ccc(Cl)cc1)C2` [Example 16, (R)-1-(2-(4-Chlorophenylsulfonyl)-2-azaspiro[3.3]heptan-5-yl)-3-(2,4-dichlorobenzyl)urea] reads 2690 nM.
As for `O=C(NCc1ccc(Cl)cc1Cl)N[C@H]1CCC12CN(S(=O)(=O)c1ccc(Cl)cc1)C2` [Example 17, (S)-1-(2-(4-Chlorophenylsulfonyl)-2-azaspiro[3.3]heptan-5-yl)-3-(2,4-dichlorobenzyl)urea], half-maximal inhibition (IC50) was put at 678 nM.

What is called IC50 is the concentration that inhibits the measured activity by half.
